Measured values published in PubChem BioAssay (NCI).
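48-hour exposure; five concentrations; linearly interpolated endpoints. The concentration for 50% growth inhibition is given as GI50. TGI: total growth inhibition.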

Experiments:
Test in all cases: NCI anticancer screen, dose series, 48 h
[1] = test system: ACHN renal
[2] = test system: BT-549 breast
[3] = test system: HS 578T breast
[4] = test system: K-562 leukemia
[5] = test system: MCF7 breast
[6] = test system: MOLT-4 leukemia
[7] = test system: NCI-H522 lung
[8] = test system: SF-295 CNS
[9] = test system: SK-MEL-5 melanoma
[10] = test system: SK-OV-3 ovarian

C=C1C(=O)O[C@H]2[C@H]1CC/C(COC(=O)N[C@H]1C[C@H](O[C@H]3C[C@](O)(C(=O)CO)Cc4c(O)c5c(c(O)c43)C(=O)c3c(OC)cccc3C5=O)O[C@@H](C)[C@H]1O)=C\CC[C@@]1(C)O[C@@H]21
GI50 [1]: 41.3 µM
TGI [1]: > 50 µM
GI50 [2]: 2.4 µM
TGI [2]: 9.24 µM
GI50 [3]: 9.93 µM
TGI [3]: 34 µM
GI50 [4]: 1580 nM
TGI [4]: 11.4 µM
GI50 [5]: 1860 nM
TGI [5]: 9.86 µM
GI50 [6]: 1030 nM
TGI [6]: 2.83 µM
GI50 [7]: 772 nM
TGI [7]: 1.68 µM
GI50 [8]: 45.3 µM
TGI [8]: > 50 µM
GI50 [9]: 8.1 µM
TGI [9]: 18.1 µM
GI50 [10]: > 50 µM
TGI [10]: > 50 µM

CCCc1nc(Cl)nc(Cl)c1Cl
TGI [1]: 1.62 µM
TGI [2]: 0.0764 µM
TGI [3]: 8.46 µM
TGI [4]: 0.118 µM
TGI [5]: 1.52 µM
TGI [6]: 0.551 µM
TGI [7]: 1.26 µM
TGI [8]: 6.89 µM
TGI [9]: 3.21 µM
TGI [10]: 6.95 µM

CC(NC(=O)Cc1ccc(C(F)(F)P(=O)(OCc2ccc([N+](=O)[O-])o2)N(C)CCCCCl)cc1)c1ccc(OCC2CCCCC2)c(C(N)=O)c1 (centres undefined)
GI50 [1]: 8.77 µM
TGI [1]: 39.3 µM
GI50 [2]: 5.27 µM
TGI [2]: 13.5 µM
GI50 [3]: 8.21 µM
TGI [3]: 38.4 µM
GI50 [4]: 4500 nM
TGI [4]: 17.9 µM
GI50 [5]: 6530 nM
TGI [5]: 41.4 µM
GI50 [6]: 2190 nM
TGI [6]: 7.06 µM
GI50 [7]: 3860 nM
TGI [7]: 10.2 µM
GI50 [8]: 4.52 µM
TGI [8]: 12.3 µM
GI50 [9]: 6.77 µM
TGI [9]: 15.5 µM
GI50 [10]: 19.3 µM
TGI [10]: 43.5 µM

C/C(=C(/c1ccccc1)c1ccc(OCC(O)CNCCN2CCOCC2)cc1)c1ccccc1 (centres undefined)
GI50 [1]: 3.31 µM
TGI [1]: 11.7 µM
GI50 [2]: 10.1 µM
TGI [2]: 22.2 µM
GI50 [3]: 1.77 µM
TGI [3]: 4.1 µM
GI50 [4]: 1750 nM
TGI [4]: 4.26 µM
GI50 [5]: 3610 nM
TGI [5]: 10.2 µM
GI50 [6]: 2130 nM
TGI [6]: 5.41 µM
GI50 [7]: 2220 nM
TGI [7]: 6.18 µM
GI50 [8]: 1.92 µM
TGI [8]: 3.63 µM
GI50 [9]: 1.77 µM
TGI [9]: 3.19 µM
GI50 [10]: 11.1 µM
TGI [10]: 24.8 µM

O=C(c1ccc2ccccc2c1)c1nc2cc(F)ccc2[n+]([O-])c1C(F)(F)F
GI50 [1]: 22.5 µM
TGI [1]: 60 µM
GI50 [2]: 17.5 µM
TGI [2]: 33 µM
GI50 [3]: 21.9 µM
TGI [3]: 56.9 µM
GI50 [4]: 2800 nM
TGI [4]: 15.4 µM
GI50 [5]: 35600 nM
TGI [5]: > 100 µM
GI50 [6]: 22900 nM
TGI [6]: 53.8 µM
GI50 [7]: 13600 nM
TGI [7]: 29.8 µM
GI50 [8]: 18.3 µM
TGI [8]: 37.9 µM
GI50 [9]: 24.9 µM
TGI [9]: 67.6 µM
GI50 [10]: 19.4 µM
TGI [10]: 34.1 µM

Cn1c(=O)n(C)c2cc(CNCCNc3ccnc4cc(Cl)ccc34)ccc21
GI50 [1]: 25.4 µM
TGI [1]: 93.4 µM
GI50 [2]: > 100 µM
TGI [2]: > 100 µM
GI50 [3]: 23.8 µM
TGI [3]: 95 µM
GI50 [4]: 6990 nM
TGI [4]: 39.4 µM
GI50 [5]: 28600 nM
TGI [5]: > 100 µM
GI50 [6]: 21100 nM
TGI [6]: > 100 µM
GI50 [7]: 30200 nM
TGI [7]: 93.3 µM
GI50 [8]: 15.3 µM
TGI [8]: 40.1 µM
GI50 [9]: 16.5 µM
TGI [9]: 30.3 µM
GI50 [10]: 72.7 µM
TGI [10]: > 100 µM

COc1cc([C@@H]2c3cc4c(cc3[C@H](OC(C)=O)[C@H]3COC(=O)[C@@H]23)OCO4)cc(OC)c1OC
GI50 [1]: 0.766 µM
TGI [1]: > 100 µM
GI50 [2]: 0.419 µM
TGI [2]: > 68.5 µM
GI50 [3]: 0.253 µM
TGI [3]: 0.682 µM
GI50 [4]: 253 nM
TGI [4]: > 100 µM
GI50 [5]: 334 nM
TGI [5]: > 100 µM
GI50 [6]: 438 nM
TGI [6]: > 100 µM
GI50 [7]: 150 nM
TGI [7]: 0.448 µM
GI50 [8]: 0.296 µM
TGI [8]: > 100 µM
GI50 [9]: 0.298 µM
TGI [9]: 1.24 µM
GI50 [10]: 0.334 µM
TGI [10]: > 100 µM

COc1cc(F)ccc1-c1cc(Nc2cc(CS(C)(=N)=O)ccn2)ncc1F (centres undefined)
GI50 [1]: 0.0371 µM
TGI [1]: > 100 µM
GI50 [2]: 0.0739 µM
TGI [2]: 2.06 µM
GI50 [3]: 0.0919 µM
GI50 [4]: 264 nM
TGI [4]: > 100 µM
GI50 [5]: 39.1 nM
TGI [5]: > 100 µM
GI50 [6]: 111 nM
TGI [6]: 0.985 µM
GI50 [7]: 248 nM
TGI [7]: 2.17 µM
GI50 [8]: 0.0662 µM
TGI [8]: > 100 µM
GI50 [9]: 0.0385 µM
TGI [9]: 14.3 µM
GI50 [10]: 0.638 µM
TGI [10]: > 100 µM

CN(Cc1ccc(F)cc1)c1ccc(CO)c(Cl)c1
GI50 [1]: 28.9 µM
TGI [1]: > 100 µM
GI50 [2]: 12.3 µM
TGI [2]: 39.9 µM
GI50 [3]: 27.4 µM
TGI [3]: 97.3 µM
GI50 [4]: 7990 nM
TGI [4]: > 100 µM
GI50 [5]: 1230 nM
TGI [5]: 21.5 µM
GI50 [6]: 21800 nM
TGI [6]: 69.3 µM
GI50 [7]: 26500 nM
TGI [7]: 97.3 µM
GI50 [8]: 3.38 µM
TGI [8]: > 62.3 µM
GI50 [9]: 8.6 µM
TGI [9]: 22.8 µM
GI50 [10]: 12.2 µM
TGI [10]: 70.9 µM

CC(=O)c1cccc(NC(=O)C(=O)c2c(O)c3ccccc3oc2=O)c1
TGI [1]: > 100 µM
TGI [2]: > 100 µM
TGI [3]: > 100 µM
TGI [4]: > 100 µM
TGI [5]: > 100 µM
TGI [6]: > 100 µM
TGI [7]: > 100 µM
TGI [8]: > 100 µM
TGI [9]: > 100 µM
TGI [10]: > 100 µM

CCN1[C@@H](C(=O)NC23CCC(C(=O)O)(CC2)CC3)[C@H](c2cccc(Cl)c2F)[C@]2(C(=O)Nc3cc(Cl)ccc32)C12CCCCC2
GI50 [1]: 0.0878 µM
TGI [1]: 3.77 µM
GI50 [2]: 2.28 µM
TGI [2]: 5.54 µM
GI50 [3]: 2.05 µM
TGI [3]: 10.1 µM
GI50 [4]: 2980 nM
TGI [4]: > 100 µM
GI50 [5]: 52.3 nM
TGI [5]: 3.97 µM
GI50 [6]: 164 nM
TGI [6]: > 22.9 µM
GI50 [7]: 2620 nM
TGI [7]: 8.24 µM
GI50 [8]: 2.21 µM
TGI [8]: 7.29 µM
GI50 [9]: 1.39 µM
TGI [9]: 2.75 µM
GI50 [10]: 3.03 µM
TGI [10]: 12 µM

CSc1ncnc2c1ncn2CC(=O)C1CCC2C3CCC4=CC(=O)CCC4(C)C3CCC12C (centres undefined)
TGI [1]: 23.8 µM
TGI [2]: 9.89 µM
TGI [3]: > 100 µM
TGI [4]: > 71.8 µM
TGI [5]: 14.9 µM
TGI [6]: 4.93 µM
TGI [7]: 24.5 µM
TGI [8]: 23.7 µM
TGI [9]: 5.15 µM
TGI [10]: > 100 µM

COc1ccc(-c2cnnn2-c2nonc2-n2cccc2)cc1OC
GI50 [1]: 7.8 µM
TGI [1]: > 100 µM
GI50 [2]: 4.06 µM
TGI [2]: > 100 µM
GI50 [3]: 4.55 µM
TGI [3]: 75.7 µM
GI50 [4]: 1370 nM
TGI [4]: > 100 µM
GI50 [5]: 3170 nM
TGI [5]: > 100 µM
GI50 [6]: 3630 nM
TGI [6]: > 100 µM
GI50 [7]: 2320 nM
TGI [7]: 11.3 µM
GI50 [8]: 3.94 µM
TGI [8]: 44.6 µM
GI50 [9]: 4.6 µM
TGI [9]: 21.1 µM
GI50 [10]: 5.18 µM
TGI [10]: 29.8 µM
